Assay [1] has as its target T1, HCV polymerase 1A (Δ21 NS5B, H77) (Hepatitis C virus genotype 1a, UniProt P27958).
T1 construct: 20 to 50 nM Δ21 NS5B
Briefly: biochemical. The method, boiled down:
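Incorporation of 1 μM ^3H-UTP, with 20 μM each of CTP and ATP on 5 nM template RNA, ran 2–4 h at room temperature. Spermine-precipitated product was filtered and scintillation-counted. IC50 came from tight-binding non-linear regression of cpm against inhibitor concentration.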

Assay [2] has as its system genotype 1a-H77 subgenomic replicon cell line. Briefly: microbe, parasite or virus in culture. The class given is cell-based, HCV. The note with it: read-out: EC50 1a.
Assay [3] concerns the target T2, HCV polymerase 1B (Δ21 NS5B, BK) (Hepatitis C virus genotype 1b, UniProt P26663).
T2 construct: 20 to 50 nM Δ21 NS5B
Briefly: biochemical. The method, boiled down:
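Δ21 NS5B (genotype 1b, BK […]) preincubated 15 min RT with inhibitor, 2 mM MnCl2, pH 7.4, 60–125 μM GTP; started with 20 μM CTP/ATP, 1 μM 3H-UTP, 5 nM template RNA, run 2–4 h RT. Spermine-precipitated RNA filter-captured, scintillation counted; IC50 from tight-binding (Morrison) fit.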

Assay [4] deals with genotype 1b-Con1 subgenomic replicon cell line. Put plainly: microbe, parasite or virus in culture. The class given is cell-based, HCV. Conditions: read-out: EC50 1b.

Usually IC50 stands for the concentration that gives 50% inhibition. The EC50 is the concentration needed to bring the measured effect to its halfway point.

Read-outs that look alike come from different tables or passages of the source. Where only a bound is given, the exact number is not on record here.

T1 sequence (P27958 2421-2990, stated change not applied): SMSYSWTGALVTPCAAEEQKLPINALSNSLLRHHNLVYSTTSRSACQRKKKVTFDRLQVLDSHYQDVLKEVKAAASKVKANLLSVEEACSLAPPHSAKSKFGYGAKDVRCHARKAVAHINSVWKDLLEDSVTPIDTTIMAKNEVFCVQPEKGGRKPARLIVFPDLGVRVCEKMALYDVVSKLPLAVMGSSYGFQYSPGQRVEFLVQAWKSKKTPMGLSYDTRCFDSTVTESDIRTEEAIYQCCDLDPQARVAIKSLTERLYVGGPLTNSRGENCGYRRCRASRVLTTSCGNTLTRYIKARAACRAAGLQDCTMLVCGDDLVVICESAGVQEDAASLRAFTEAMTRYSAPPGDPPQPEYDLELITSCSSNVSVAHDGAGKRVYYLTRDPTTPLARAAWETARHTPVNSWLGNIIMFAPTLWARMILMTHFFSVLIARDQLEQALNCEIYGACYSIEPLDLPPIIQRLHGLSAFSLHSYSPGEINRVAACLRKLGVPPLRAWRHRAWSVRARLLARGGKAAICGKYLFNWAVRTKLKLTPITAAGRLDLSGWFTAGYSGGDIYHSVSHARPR
T2 sequence (P26663 2420-2989, stated change not applied): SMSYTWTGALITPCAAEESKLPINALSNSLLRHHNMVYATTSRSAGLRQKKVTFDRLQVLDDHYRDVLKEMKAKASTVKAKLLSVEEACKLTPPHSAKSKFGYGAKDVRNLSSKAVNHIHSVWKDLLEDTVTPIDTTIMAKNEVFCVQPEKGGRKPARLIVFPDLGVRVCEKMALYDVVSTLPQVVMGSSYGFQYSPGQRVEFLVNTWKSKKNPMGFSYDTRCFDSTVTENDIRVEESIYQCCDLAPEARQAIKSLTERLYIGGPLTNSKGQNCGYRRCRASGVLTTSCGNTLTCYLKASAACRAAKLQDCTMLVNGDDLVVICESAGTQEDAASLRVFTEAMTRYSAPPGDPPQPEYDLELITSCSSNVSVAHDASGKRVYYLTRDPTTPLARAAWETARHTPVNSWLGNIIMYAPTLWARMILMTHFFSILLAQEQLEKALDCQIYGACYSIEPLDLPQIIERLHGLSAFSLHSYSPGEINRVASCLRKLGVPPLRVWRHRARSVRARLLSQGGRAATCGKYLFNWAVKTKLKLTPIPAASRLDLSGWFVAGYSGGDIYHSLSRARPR

Take `COc1c(C(=O)Nc2cccc(CNS(C)(=O)=O)c2)cc(N2CCC(=O)NC2=O)cc1C(C)(C)C` [IA-L3-1.120, 3-tert-butyl-5-(2,4-dioxotetrahydropyrimidin-1(2H)-yl)-2-methoxy-N-(3-(methylsulfonamidomethyl)phenyl)benzamide]: the 50% inhibitory concentration (IC50) in assay [1] (IC50 1a) and in assay [3] was 100 to 1000 nM each time. Also, the concentration for a half-maximal effect (EC50) in assay [2] (Hepatitis C virus) and in assay [4] (Hepatitis C virus) was above 1000 nM in each case.

Take `CC(C)(C)c1cc(N2CCC(=O)NC2=O)cc(NC(=O)c2ccc(CS(C)(=O)=O)cc2)c1O` [IA-L4-1.4, N-(3-tert-butyl-5-(2,4-dioxotetrahydropyrimidin-1(2H)-yl)-2-hydroxyphenyl)-4-(methylsulfonylmethyl)benzamide]: the IC50 in assay [1] (IC50 1a) and in assay [3] was above 1000 nM in each case. The EC50 in assay [2] (Hepatitis C virus) and in assay [4] (Hepatitis C virus) was above 1000 nM throughout.

`COc1c(-c2ccc3c(c2)CC=C3CNS(C)(=O)=O)cc(-n2ccc(=O)[nH]c2=O)cc1-c1ccco1` [IB-L0-2.65, N-((6-(5-(2,4-dioxo-3,4-dihydropyrimidin-1(2H)-yl)-3-(furan-2-yl)-2-methoxyphenyl)-1H-inden-3-yl)methyl)methanesulfonamide]: the IC50 in assay [1] (IC50 1a) was 10 to 100 nM; in assay [3], below 10 nM. Further, the EC50 in assay [2] (Hepatitis C virus) is 100 to 1000 nM; in assay [4] (Hepatitis C virus), 10 to 100 nM.

As for `COc1c(-c2ccc3c(c2)CCC3C(C)(C)NS(C)(=O)=O)cc(-n2ccc(=O)[nH]c2=O)cc1C(C)(C)C` (centres unmarked) [IB-L0-2.29, N-(2-(5-(3-tert-butyl-5-(2,4-dioxo-3,4-dihydropyrimidin-1(2H)-yl)-2-methoxyphenyl)-2,3-dihydro-1H-inden-1-yl)propan-2-yl)methanesulfonamide], the IC50 in assay [1] (IC50 1a) and in assay [3] was 10 to 100 nM each time. Also, the EC50 in assay [2] (Hepatitis C virus) was in the range of 100 to 1000 nM; in assay [4] (Hepatitis C virus), 10 to 100 nM.

Regarding `CC(C)(C)c1cc(N2CCC(=O)NC2=O)cc(C(=O)Nc2ccc(OS(C)(=O)=O)cc2)c1O` [IA-L3-1.19, 4-(3-tert-butyl-5-(2,4-dioxotetrahydropyrimidin-1(2H)-yl)-2-hydroxybenzamido)phenyl methanesulfonate], the results for the IC50 in assay [1] (IC50 1a) and in assay [3] were 100 to 1000 nM and 10 to 100 nM, respectively. The concentration giving a half-maximal response (EC50) in assay [2] (Hepatitis C virus) and in assay [4] (Hepatitis C virus) was above 1000 nM in each case.

Consider `COc1c(-c2ccc(/C(C)=N/NS(C)(=O)=O)cc2)cc(-n2ccc(=O)[nH]c2=O)cc1C(C)(C)C` [IB-L0-1.5, (E)-N′-(1-(3′-tert-butyl-5′-(2,4-dioxo-3,4-dihydropyrimidin-1(2H)-yl)-2′-methoxybiphenyl-4-yl)ethylidene)methanesulfonohydrazide], for which the IC50 in assay [1] (IC50 1a) and in assay [3] was 10 to 100 nM in each case. Also, the EC50 in assay [2] (Hepatitis C virus) and in assay [4] (Hepatitis C virus) was 10 to 100 nM throughout.

As for `CN(C(=O)c1cc(N2CCC(=O)NC2=O)cc(C(C)(C)C)c1O)c1ccc(NS(C)(=O)=O)cc1` [IA-L3-1.2, 3-tert-butyl-5-(2,4-dioxotetrahydropyrimidin-1(2H)-yl)-2-hydroxy-N-methyl-N-(4-(methyl-sulfonamido)phenyl)benzamide], the IC50 was above 1000 nM in assay [1] (IC50 1a) and 10 to 100 nM in assay [3]. The EC50 in assay [2] (Hepatitis C virus) and in assay [4] (Hepatitis C virus) was above 1000 nM each time.

With `COc1c(-c2ccc3c(c2)CC=C3CNS(C)(=O)=O)cc(-n2ccc(=O)[nH]c2=O)cc1C(C)(C)C` [IB-L0-2.13, N-((6-(3-tert-butyl-5-(2,4-dioxo-3,4-dihydropyrimidin-1(2H)-yl)-2-methoxyphenyl)-1H-inden-3-yl)methyl)methanesulfonamide], the half-inhibitory concentration (IC50) in assay [1] (IC50 1a) was below 10 nM; in assay [3] it was 10 to 100 nM. Besides, the 50% effective concentration (EC50) in assay [2] (Hepatitis C virus) is 10 to 100 nM; in assay [4] (Hepatitis C virus), below 10 nM.

In the case of `COc1c(-c2cccc(/C(C)=N\NS(C)(=O)=O)c2)cc(N2CCC(=O)NC2=O)cc1C(C)(C)C` [IA-L0-1.8, (Z)—N′-(1-(3′-tert-butyl-5′-(2,4-dioxotetrahydropyrimidin-1(2H)-yl)-2′-methoxybiphenyl-3-yl)ethylidene)methanesulfonohydrazide], the IC50 in assay [1] (IC50 1a) and in assay [3] was 100 to 1000 nM in each case. For the same compound, the concentration giving a half-maximal response (EC50) in assay [2] (Hepatitis C virus) and in assay [4] (Hepatitis C virus) was above 1000 nM throughout.

Regarding `COc1c(-c2ccc3c(c2)CCC3=O)cc(-n2ccc(=O)[nH]c2=O)cc1C(C)(C)C` [IB-L0-2.50, 1-(3-tert-butyl-4-methoxy-5-(1-oxo-2,3-dihydro-1H-inden-5-yl)phenyl)pyrimidine-2,4(1H,3H)-dione], the IC50 in assay [1] (IC50 1a) and in assay [3] was 10 to 100 nM each time. For the same compound, the concentration for a half-maximal effect (EC50) in assay [2] (Hepatitis C virus) and in assay [4] (Hepatitis C virus) was 100 to 1000 nM throughout.

Regarding `COc1c(C#Cc2ccc(NS(C)(=O)=O)cc2NC(C)=O)cc(-n2ccc(=O)[nH]c2=O)cc1C(C)(C)C` [IB-L2-1.12, N-(2-((3-tert-butyl-5-(2,4-dioxo-3,4-dihydropyrimidin-1(2H)-yl)-2-methoxyphenyl)ethynyl)-5-(methylsulfonamido)phenyl)acetamide], the half-inhibitory concentration (IC50) in assay [1] (IC50 1a) and in assay [3] was 10 to 100 nM each time. Further, the 50% effective concentration (EC50) in assay [2] (Hepatitis C virus) is 100 to 1000 nM; in assay [4] (Hepatitis C virus), 10 to 100 nM.

`COc1c(C(=O)Nc2ccc(N(C)S(C)(=O)=O)cc2)cc(N2CCC(=O)NC2=O)cc1C(C)(C)C` [IA-L3-1.62, 3-tert-butyl-5-(2,4-dioxotetrahydropyrimidin-1(2H)-yl)-2-methoxy-N-(4-(N-methylmethylsulfonamido)phenyl)benzamide]: the IC50 in assay [1] (IC50 1a) and in assay [3] was 100 to 1000 nM in each case. Besides, the half-maximal effective concentration (EC50) in assay [2] (Hepatitis C virus) is above 1000 nM; in assay [4] (Hepatitis C virus), 100 to 1000 nM.

For `CC(C)(C)c1cc(N2CCC(=O)NC2=O)cc(C(=O)Nc2ccc3ncccc3c2)c1O` [IA-L3-2.1, 3-tert-butyl-5-(2,4-dioxotetrahydropyrimidin-1(2H)-yl)-2-hydroxy-N-(quinolin-6-yl)benzamide], the IC50 in assay [1] (IC50 1a) was above 1000 nM; in assay [3] it was 100 to 1000 nM. Also, the concentration giving a half-maximal response (EC50) in assay [2] (Hepatitis C virus) and in assay [4] (Hepatitis C virus) was above 1000 nM each time.

Regarding `COc1c(C#Cc2cc(F)c(NS(C)(=O)=O)cc2C)cc(-n2ccc(=O)[nH]c2=O)cc1C(C)(C)C` [IB-L2-1.3, N-(4-((3-tert-butyl-5-(2,4-dioxo-3,4-dihydropyrimidin-1(2H)-yl)-2-methoxyphenyl)ethynyl)-2-fluoro-5-methylphenyl)methanesulfonamide], the 50% inhibitory concentration (IC50) in assay [1] (IC50 1a) was below 10 nM; in assay [3], 10 to 100 nM. The EC50 in assay [2] (Hepatitis C virus) is 10 to 100 nM; in assay [4] (Hepatitis C virus), below 10 nM.

For the compound `COc1c(C(=O)N[C@H]2CC[C@H](NS(C)(=O)=O)CC2)cc(N2CCC(=O)NC2=O)cc1C(C)(C)C` [IA-L3-1.103, 3-tert-butyl-5-(2,4-dioxotetrahydropyrimidin-1(2H)-yl)-2-methoxy-N-((1r,4r)-4-(methylsulfon amido)cyclohexyl)benzamide], the IC50 in assay [1] (read-out: IC50 1a) was 100 to 1000 nM; in assay [3] (HCV polymerase 1b, read-out: IC50 1b) it was above 1000 nM. Further, the EC50 is above 1000 nM in assay [2] (genotype 1a-H77 replicon, luciferase reporter) and above 1000 nM in assay [4] (genotype 1b-Con1 replicon, luciferase reporter).

For the compound `COc1c(C#Cc2ccc(NS(C)(=O)=O)cc2C)cc(-n2ccc(=O)[nH]c2=O)cc1C(C)(C)C` [IB-L2-1.1, N-(4-((3-tert-butyl-5-(2,4-dioxo-3,4-dihydropyrimidin-1(2H)-yl)-2-methoxyphenyl)ethynyl)-3-methylphenyl)methanesulfonamide], the results for the IC50 in assay [1] (IC50 1a) and in assay [3] were below 10 nM and 10 to 100 nM, respectively. Moreover, the EC50 in assay [2] (Hepatitis C virus) and in assay [4] (Hepatitis C virus) was below 10 nM throughout.

Consider `COc1c(C(=O)Nc2ccc(CC(=O)O)cc2)cc(N2CCC(=O)NC2=O)cc1C(C)(C)C` [IA-L3-1.30, 2-(4-(3-tert-butyl-5-(2,4-dioxotetrahydropyrimidin-1(2H)-yl)-2-methoxybenzamido)phenyl)-acetic acid], for which the IC50 is above 1000 nM in assay [1] (IC50 1a) and 100 to 1000 nM in assay [3]. The EC50 in assay [2] (Hepatitis C virus) and in assay [4] (Hepatitis C virus) was above 1000 nM throughout.

Take `CC(C)(C)c1cc(N2CCC(=O)NC2=O)cc(C(=O)Nc2scc(CNS(C)(=O)=O)c2S(N)(=O)=O)c1O` [IA-L3-1.89, 3-tert-butyl-5-(2,4-dioxotetrahydropyrimidin-1(2H)-yl)-2-hydroxy-N-(4-(methylsulfonamidomethyl)-3-sulfamoylthiophen-2-yl)benzamide]: the IC50 in assay [1] (IC50 1a) and in assay [3] was 10 to 100 nM in each case. Moreover, the figures for the EC50 in assay [2] (Hepatitis C virus) and in assay [4] (Hepatitis C virus) were 100 to 1000 nM and 10 to 100 nM, respectively.

For `CC(C)(C)c1cc(-n2ccc(=O)[nH]c2=O)cc(-c2ccc3c(CNS(C)(=O)=O)csc3c2)c1Cl` [IB-L0-2.35, N-((6-(3-tert-butyl-2-chloro-5-(2,4-dioxo-3,4-dihydropyrimidin-1(2H)-yl)phenyl)benzo[b]thiophen-3-yl)methyl)methanesulfonamide], the 50% inhibitory concentration (IC50) in assay [1] (IC50 1a) and in assay [3] was 10 to 100 nM each time. Moreover, the EC50 is above 1000 nM in assay [2] (Hepatitis C virus) and 100 to 1000 nM in assay [4] (Hepatitis C virus).

Consider `COCCS(=O)(=O)Nc1ccc(NC(=O)c2cc(N3CCC(=O)NC3=O)cc(C(C)(C)C)c2O)cc1` [IA-L3-1.8, 3-tert-butyl-5-(2,4-dioxotetrahydropyrimidin-1(2H)-yl)-2-hydroxy-N-(4-(2-methoxyethylsulfonamido)phenyl)benzamide], for which the half-maximal inhibitory concentration (IC50) in assay [1] (IC50 1a) and in assay [3] was 10 to 100 nM in each case. In addition, the EC50 is above 1000 nM in assay [2] (Hepatitis C virus) and 100 to 1000 nM in assay [4] (Hepatitis C virus).

These data come from patent publication US8415351B2 (priority 2007, dated 2013).
